From paper PMC12892976, “Alkylation-based optimization of antifungal FPPS inhibitors yields a potent, broad-spectrum lipophilic zoledronate derivative” (mBio, 2025)
Values after ≈ are worked out from the molar mass of the structure shown.

Legend:
[1] = tested on: Cryptococcus deneoformans; test: MIC broth microdilution (CLSI); format: cell-based; details: Cryptococcus deneoformans JEC21
Method: (§1) Antifungal susceptibility was determined by broth microdilution according to the CLSI guidelines described in M27-Ed4 ([16]).

[2] = tested on: Fusarium solani; test: checkerboard drug interaction (FICI, MICc); format: cell-based;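 further: simplified diagonal checkerboard screen pairing antifungals with FPPS inhibitors, FICI derived under the Loewe additivity model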
Method: (§2) Drug interactions between antifungals and FPPS inhibitors were investigated using a simplified checkerboard diagonal screening method ([45]). […] FICIs were determined according to the Loewe additivity model ([17]).

[3] = tested on: Candida auris; test: MIC broth microdilution (CLSI); format: cell-based; details: Candida auris CDC-0384
Method: as §1

[4] = tested on: Cryptococcus tetragattii; test: checkerboard drug interaction (FICI, MICc); format: cell-based;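 further: simplified diagonal checkerboard screen pairing antifungals with FPPS inhibitors, with FICI calculated under the Loewe additivity model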
Method: as §2

[5] = tested on: Aspergillus niger; test: checkerboard drug interaction (FICI, MICc); format: cell-based;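 further: simplified diagonal checkerboard screen pairing antifungals with FPPS inhibitors, FICI calculated under the Loewe additivity model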
Method: as §2

[6] = tested on: Cryptococcus tetragattii; test: MIC broth microdilution (CLSI); format: cell-based; details: Cryptococcus tetragattii WM779
Method: as §1

[7] = tested on: Scedosporium apiospermum; test: checkerboard drug interaction (FICI, MICc); format: cell-based;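 further: simplified diagonal checkerboard screen of antifungal plus FPPS inhibitor pairs, with FICI computed under the Loewe additivity model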
Method: as §2

[8] = tested on: Candida dubliniensis; test: checkerboard drug interaction (FICI, MICc); format: cell-based;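 further: simplified diagonal checkerboard screen pairing antifungals with FPPS inhibitors, FICI calculated under the Loewe additivity model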
Method: as §2

[9] = tested on: Trichophyton interdigitale; test: MIC broth microdilution (CLSI); format: cell-based; details: Trichophyton interdigitale R-234
Method: as §1

[10] = tested on: Fusarium solani; test: MIC broth microdilution (CLSI); details: Fusarium solani 04-16-056-1862
Method: as §1

[11] = tested on: Lomentospora prolificans; test: checkerboard drug interaction (FICI, MICc);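 further: simplified diagonal checkerboard screen pairing antifungals with FPPS inhibitors, FICI calculated under the Loewe additivity model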
Method: as §2

[12] = tested on: Aspergillus terreus; test: checkerboard drug interaction (FICI, MICc); format: cell-based;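 further: simplified diagonal checkerboard screen pairing antifungals with FPPS inhibitors, FICI derived by the Loewe additivity model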
Method: as §2

[13] = tested on: Candida dubliniensis; test: MIC broth microdilution (CLSI); format: cell-based; details: Candida dubliniensis M230642
Method: as §1

[14] = tested on: Epidermophyton floccosum; test: checkerboard drug interaction (FICI, MICc);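 further: simplified diagonal checkerboard screen pairing antifungals with FPPS inhibitors, FICI calculated under the Loewe additivity model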
Method: as §2

[15] = tested on: Pichia kudriavzevii; test: checkerboard drug interaction (FICI, MICc); format: cell-based;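 further: antifungal plus FPPS inhibitor interactions tested in a simplified diagonal checkerboard screen, with FICI calculated under the Loewe additivity model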
Method: as §2

[16] = tested on: Mucor circinelloides; test: MIC broth microdilution (CLSI); format: cell-based; details: Mucor circinelloides 80-14-240-5007
Method: as §1

[17] = tested on: Trichophyton soudanense; test: MIC broth microdilution (CLSI); details: Trichophyton soudanense R-167
Method: as §1

[18] = tested on: Nannizzia gypsea; test: checkerboard drug interaction (FICI, MICc);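 further: simplified diagonal checkerboard screen pairing antifungals with FPPS inhibitors, FICI derived using the Loewe additivity model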
Method: as §2

[19] = tested on: Aspergillus parafelis; test: MIC broth microdilution (CLSI); format: cell-based; details: Aspergillus parafelis DTO 341-F2
Method: as §1

[20] = tested on: Nannizzia gypsea; test: MIC broth microdilution (CLSI); format: cell-based; details: Nannizzia gypsea R-131
Method: as §1

[21] = tested on: Trichophyton tonsurans; test: checkerboard drug interaction (FICI, MICc); format: cell-based;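 further: simplified diagonal checkerboard screen combining antifungals with FPPS inhibitors, with FICI calculated under the Loewe additivity model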
Method: as §2

[22] = tested on: Paraphyton cookei; test: checkerboard drug interaction (FICI, MICc);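 further: simplified diagonal checkerboard screen pairing an antifungal with an FPPS inhibitor, FICI computed under the Loewe additivity model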
Method: as §2

[23] = tested on: Aspergillus udagawae; test: MIC broth microdilution (CLSI); format: cell-based; details: Aspergillus udagawae 8G81
Method: as §1

Compound | MIC / MEC [1] [µg/mL] | antifungal MICc ([2]; in combination with 10-ZOL) | antifungal MICc ([2]; in combination with ZOL) | MIC / MEC [3] [µg/mL] | antifungal MICc ([4]; in combination with 10-ZOL) | antifungal MICc ([4]; in combination with ZOL) | antifungal MICc ([5]; in combination with 10-ZOL) | antifungal MICc ([5]; in combination with ZOL) | MIC / MEC [6] [µg/mL] | antifungal MICc ([7]; in combination with 10-ZOL) | antifungal MICc ([7]; in combination with ZOL) | antifungal MICc ([8]; in combination with 10-ZOL) | antifungal MICc ([8]; in combination with ZOL) | MIC / MEC [9] [µg/mL] | MIC / MEC [10] [µg/mL] | antifungal MICc ([11]; in combination with 10-ZOL) | antifungal MICc ([11]; in combination with ZOL) | antifungal MICc ([12]; in combination with 10-ZOL) | antifungal MICc ([12]; in combination with ZOL) | MIC / MEC [13] [µg/mL] | other results
CC[C@H](C)C[C@H](C)CCCCCCCCC(=O)N[C@H]1C[C@@H](O)[C@@H](NCCN)NC(=O)[C@@H]2[C@@H](O)CCN2C(=O)[C@H]([C@H](O)CCN)NC(=O)[C@H]([C@H](O)[C@@H](O)c2ccc(O)cc2)NC(=O)[C@@H]2C[C@@H](O)CN2C(=O)[C@H]([C@@H](C)O)NC1=O [CAS, caspofungin] | 16 (≈ 14.6 µM) | 16 | 64 | 4 (≈ 3.66 µM) | 1 | 16 | 2 | 4 | 8 (≈ 7.32 µM) | 16 | 32 | 0.063 | 0.01 | 0.25 (≈ 0.229 µM) | 16 (≈ 14.6 µM) | 128 | 64 | 2 | 2 | 0.06 (≈ 0.0549 µM) | antifungal MICc ([14]; in combination with 10-ZOL): 0.125; antifungal MICc ([14]; in combination with ZOL): 0.25; antifungal MICc ([15]; in combination with 10-ZOL): 0.5; antifungal MICc ([15]; in combination with ZOL): 0.5; MIC / MEC [16]: >16 µg/mL; MIC / MEC [17]: 0.5 µg/mL (≈ 0.457 µM); antifungal MICc ([18]; in combination with 10-ZOL): 0.25; antifungal MICc ([18]; in combination with ZOL): 0.5; MIC / MEC [19]: 0.13 µg/mL (≈ 0.119 µM); MIC / MEC [20]: 1 µg/mL (≈ 0.915 µM); antifungal MICc ([21]; in combination with 10-ZOL): 2; antifungal MICc ([21]; in combination with ZOL): 0.25; antifungal MICc ([22]; in combination with 10-ZOL): 0.25; antifungal MICc ([22]; in combination with ZOL): 0.125; MIC / MEC [23]: 2 µg/mL (≈ 1.83 µM)
Nc1nc(=O)[nH]cc1F [5FC, 5-flucytosine] | 2 (≈ 15.5 µM) | 512 | 256 | 2 (≈ 15.5 µM) | 0.5 | 0.5 | 512 | 256 | 4 (≈ 31 µM) | 256 | 256 | 0.125 | 0.125 | >64 | >64 | 256 | 256 | 64 | 32 | 0.25 (≈ 1.94 µM) | antifungal MICc ([14]; in combination with 10-ZOL): 32; antifungal MICc ([14]; in combination with ZOL): 32; antifungal MICc ([15]; in combination with 10-ZOL): 16; antifungal MICc ([15]; in combination with ZOL): 2; MIC / MEC [16]: >64 µg/mL; MIC / MEC [17]: 64 µg/mL (≈ 496 µM); antifungal MICc ([18]; in combination with 10-ZOL): 512; antifungal MICc ([18]; in combination with ZOL): 256; MIC / MEC [19]: >64 µg/mL; MIC / MEC [20]: >64 µg/mL; antifungal MICc ([21]; in combination with 10-ZOL): 64; antifungal MICc ([21]; in combination with ZOL): 64; antifungal MICc ([22]; in combination with 10-ZOL): 512; antifungal MICc ([22]; in combination with ZOL): 512; MIC / MEC [23]: >64 µg/mL
C[C@@H](c1ncncc1F)[C@](O)(Cn1cncn1)c1ccc(F)cc1F [VOR] | 0.06 (≈ 0.172 µM) | 0.5 | 1 | 2 (≈ 5.73 µM) | 0.063 | 0.125 | 0.13 | 1 | 0.13 (≈ 0.372 µM) | 0.5 | 1 | 0.033 | 0.0125 | 0.25 (≈ 0.716 µM) | 1 (≈ 2.86 µM) | 2 | 16 | 0.25 | 0.125 | 0.06 (≈ 0.172 µM) | antifungal MICc ([14]; in combination with 10-ZOL): 0.032; antifungal MICc ([14]; in combination with ZOL): 0.25; antifungal MICc ([15]; in combination with 10-ZOL): 0.5; antifungal MICc ([15]; in combination with ZOL): 1; MIC / MEC [16]: 8 µg/mL (≈ 22.9 µM); MIC / MEC [17]: 0.13 µg/mL (≈ 0.372 µM); antifungal MICc ([18]; in combination with 10-ZOL): 0.25; antifungal MICc ([18]; in combination with ZOL): 0.0625; MIC / MEC [19]: 8 µg/mL (≈ 22.9 µM); MIC / MEC [20]: 0.25 µg/mL (≈ 0.716 µM); antifungal MICc ([21]; in combination with 10-ZOL): 0.063; antifungal MICc ([21]; in combination with ZOL): 0.0625; antifungal MICc ([22]; in combination with ZOL): 0.125; MIC / MEC [23]: 1 µg/mL (≈ 2.86 µM)
